Source: BindingDB's records for doi:10.1021/jm950699x (Rhône-Poulenc Rorer, 1996)

Target: Leukotriene B4 receptor (Cavia porcellus)
Test: Compound was evaluated for Leukotriene B4 receptor binding, obtained from radioligand binding assay using guinea pig spleen cell membrane

IC50: > 300 nM
SMILES: CCOC(=O)/C=C/c1cn(CC(=O)N(C)CCc2ccccc2)c2ccc(OCc3ccccc3)cc12 [(E)-3-{5-Benzyloxy-1-[(methyl-phenethyl-carbamoyl)-methyl]-1H-indol-3-yl}-acrylic acid ethyl ester]
